Measurements published in US11247972B2, “Compositions and methods for treating toxoplasmosis, cryptosporidiosis, and other apicomplexan protozoan related diseases” (University of Washington through its Center for …, priority 2010, dated 2022).

Key:
PfCDPK4 = PfCDPK4 (Plasmodium falciparum (isolate 3D7), UniProt Q8IBS5); assay: biochemical; conditions: read-out: PfCDPK4 (% inhibition @ 3 uM)
PfCDPK1 = PfCDPK1 (Plasmodium falciparum (isolate 3D7), UniProt P62344); assay: biochemical; conditions: read-out: PfCDPK1 (% inhibition @ 3 uM)

Row | Structure (SMILES) | inhibition at 3 µM (PfCDPK4) | inhibition at 3 µM (PfCDPK1)
1 | CC(C)n1nc(Cc2cccc3ccccc23)c2c(N)ncnc21 [Compound 3, 1-isopropyl-3-(naphthalen-1-ylmethyl)-1H-pyrazolo[3,4-d]pyrimidin-4-amine] | 76% | 78%
2 | Cn1nc(Cc2cccc3ccccc23)c2c(N)ncnc21 [Compound 5a, 1-methyl-3-(naphthalen-1-ylmethyl)-1H-pyrazolo[3,4-d]pyrimidin-4-amine] | 52% | –
3 | C#CCn1nc(Cc2cccc3ccccc23)c2c(N)ncnc21 [Compound 5b, 3-(naphthalen-1-ylmethyl)-1-(prop-2-ynyl)-1H-pyrazolo[3,4-d]pyrimidin-4-amine] | 20% | –
4 | NC(=O)Cn1nc(Cc2cccc3ccccc23)c2c(N)ncnc21 [Compound 5c, 2-(4-amino-3-(naphthalen-1-ylmethyl)-1H-pyrazolo[3,4-d]pyrimidin-1-yl)acetamide] | 23% | 45%
5 | CC(C)(C)n1nc(Cc2cccc3ccccc23)c2c(N)ncnc21 [Compound 5d, 1-tert-butyl-3-(naphthalen-1-ylmethyl)-1H-pyrazolo[3,4-d]pyrimidin-4-amine] | 86% | 76%
6 | Nc1ncnc2c1c(Cc1cccc3ccccc13)nn2Cc1ccccc1 [Compound 5e, 1-benzyl-3-(naphthalen-1-ylmethyl)-1H-pyrazolo[3,4-d]pyrimidin-4-amine] | 5% | –
7 | Nc1ncnc2c1c(Cc1cccc3ccccc13)nn2C1CCCCC1 [Compound 5f, 1-cyclohexyl-3-(naphthalen-1-ylmethyl)-1H-pyrazolo[3,4-d]pyrimidin-4-amine] | 15% | –
8 | Nc1ncnc2c1c(Cc1cccc3ccccc13)nn2C1CCNCC1 [Compound 5g, 3-(naphthalen-1-ylmethyl)-1-(piperidin-4-yl)-1H-pyrazolo[3,4-d]pyrimidin-4-amine] | 75% | 56%
9 | Nc1ncnc2c1c(Cc1cccc3ccccc13)nn2CCC1CCNCC1 [Compound 5i, 3-(naphthalen-1-ylmethyl)-1-(2-(piperidin-4-yl)ethyl)-1H-pyrazolo[3,4-d]pyrimidin-4-amine] | 80% | 58%
10 | CC(=O)N1CCC(n2nc(Cc3cccc4ccccc34)c3c(N)ncnc32)CC1 [Compound 5j, 1-(4-(4-amino-3-(naphthalen-1-ylmethyl)-1H-pyrazolo[3,4-d]pyrimidin-1-yl)piperidin-1-yl)ethanone] | 48% | –
11 | CC(=O)N1CCC(Cn2nc(Cc3cccc4ccccc34)c3c(N)ncnc32)CC1 [Compound 5k, 1-(4-((4-amino-3-(naphthalen-1-ylmethyl)-1H-pyrazolo[3,4-d]pyrimidin-1-yl)methyl)piperidin-1-yl)ethanone] | 28% | 69%
12 | CC(=O)N1CCC(CCn2nc(Cc3cccc4ccccc34)c3c(N)ncnc32)CC1 [Compound 5l, 1-(4-(2-(4-amino-3-(naphthalen-1-ylmethyl)-1H-pyrazolo[3,4-d]pyrimidin-1-yl)ethyl)piperidin-1-yl)ethanone] | 41% | 51%
13 | CCN1CCC(n2nc(Cc3cccc4ccccc34)c3c(N)ncnc32)CC1 [Compound 5m, 1-(1-ethylpiperidin-4-yl)-3-(naphthalen-1-ylmethyl)-1H-pyrazolo[3,4-d]pyrimidin-4-amine] | 42% | –
14 | CCN1CCC(Cn2nc(Cc3cccc4ccccc34)c3c(N)ncnc32)CC1 [Compound 5n, 1-((1-ethylpiperidin-4-yl)methyl)-3-(naphthalen-1-ylmethyl)-1H-pyrazolo[3,4-d]pyrimidin-4-amine] | 27% | 49%
15 | CCN1CCC(CCn2nc(Cc3cccc4ccccc34)c3c(N)ncnc32)CC1 [Compound 5o, 1-(2-(1-ethylpiperidin-4-yl)ethyl)-3-(naphthalen-1-ylmethyl)-1H-pyrazolo[3,4-d]pyrimidin-4-amine] | 37% | 71%
16 | CS(=O)(=O)N1CCC(n2nc(Cc3cccc4ccccc34)c3c(N)ncnc32)CC1 [Compound 5p, 1-(1-(methylsulfonyl)piperidin-4-yl)-3-(naphthalen-1-ylmethyl)-1H-pyrazolo[3,4-d]pyrimidin-4-amine] | 53% | –
17 | CS(=O)(=O)N1CCC(Cn2nc(Cc3cccc4ccccc34)c3c(N)ncnc32)CC1 [Compound 5q, 1-((1-(methylsulfonyl)piperidin-4-yl)methyl)-3-(naphthalen-1-ylmethyl)-1H-pyrazolo[3,4-d]pyrimidin-4-amine] | 15% | 78%
18 | CS(=O)(=O)N1CCC(CCn2nc(Cc3cccc4ccccc34)c3c(N)ncnc32)CC1 [Compound 5r, 1-(2-(1-(methylsulfonyl)piperidin-4-yl)ethyl)-3-(naphthalen-1-ylmethyl)-1H-pyrazolo[3,4-d]pyrimidin-4-amine] | 22% | 55%
19 | CC(C)n1nc(-c2cccc(OCc3ccccc3)c2)c2c(N)ncnc21 [Compound 7aa, 3-(3-(benzyloxy)phenyl)-1-isopropyl-1H-pyrazolo[3,4-d]pyrimidin-4-amine] | 18% | 75%
20 | CC(C)c1cccc(-c2nn(C(C)C)c3ncnc(N)c23)c1 [Compound 7e, 1-isopropyl-3-(3-isopropylphenyl)-1H-pyrazolo[3,4-d]pyrimidin-4-amine] | 52% | 74%

Row | Structure (SMILES) | inhibition at 3 µM (PfCDPK4) | inhibition at 3 µM (PfCDPK1)
21 | Cc1ccc(-c2nn(C(C)C)c3ncnc(N)c23)cc1C [Compound 7h, 3-(3,4-dimethylphenyl)-1-isopropyl-1H-pyrazolo[3,4-d]pyrimidin-4-amine] | 85% | 83%
22 | CC(C)n1nc(-c2ccc3c(c2)CCCO3)c2c(N)ncnc21 [Compound 7w, 3-(chroman-6-yl)-1-isopropyl-1H-pyrazolo[3,4-d]pyrimidin-4-amine] | 55% | –
23 | CC(C)n1nc(-c2cccc3c2sc2ccccc23)c2c(N)ncnc21 [Compound 7x, 3-(dibenzo[b,d]thiophen-4-yl)-1-isopropyl-1H-pyrazolo[3,4-d]pyrimidin-4-amine] | 21% | –
24 | CC(C)n1nc(-c2cccc(Cc3ccccc3)c2)c2c(N)ncnc21 [Compound 7y, 3-(3-benzylphenyl)-1-isopropyl-1H-pyrazolo[3,4-d]pyrimidin-4-amine] | 17% | –
25 | Nc1ncnc2c1c(Cc1cccc3ccccc13)nn2C1CCCC1 [Compound 13, 1-cyclopentyl-3-(naphthalen-1-ylmethyl)-1H-pyrazolo[3,4-d]pyrimidin-4-amine] | 25% | –
26 | CC(C)n1nc(Cc2ccc3ccccc3c2)c2c(N)ncnc21 [Compound 14, 1-isopropyl-3-(naphthalen-2-ylmethyl)-1H-pyrazolo[3,4-d]pyrimidin-4-amine] | 13% | –
27 | Nc1ncnc2c1c(Cc1cccc3ccccc13)nn2C1CCOCC1 [Compound 15, 3-(naphthalen-1-ylmethyl)-1-(tetrahydro-2H-pyran-4-yl)-1H-pyrazolo[3,4-d]pyrimidin-4-amine] | 11% | –
28 | CC(C)n1nc(-c2cccnc2)c2c(N)ncnc21 [Compound 16, 1-isopropyl-3-(pyridin-3-yl)-1H-pyrazolo[3,4-d]pyrimidin-4-amine] | 13% | –
29 | CC(C)n1nc(-c2cncnc2)c2c(N)ncnc21 [Compound 18, 1-isopropyl-3-(pyrimidin-5-yl)-1H-pyrazolo[3,4-d]pyrimidin-4-amine] | 4% | –
30 | CC(C)n1nc(-c2ccnc(Cl)c2)c2c(N)ncnc21 [Compound 19, 3-(2-chloropyridin-4-yl)-1-isopropyl-1H-pyrazolo[3,4-d]pyrimidin-4-amine] | 14% | –
31 | CC(C)n1nc(-c2ccc3c(ccn3C)c2)c2c(N)ncnc21 [Compound 20, 1-isopropyl-3-(1-methyl-1H-indol-5-yl)-1H-pyrazolo[3,4-d]pyrimidin-4-amine] | 93% | –
32 | CC(C)n1nc(-c2cc3ccccc3[nH]2)c2c(N)ncnc21 [Compound 24, 3-(1H-indol-2-yl)-1-isopropyl-1H-pyrazolo[3,4-d]pyrimidin-4-amine] | 93% | –
33 | COc1ccc2[nH]c(-c3nn(C(C)C)c4ncnc(N)c34)cc2c1 [Compound 27, 1-isopropyl-3-(5-methoxy-1H-indol-2-yl)-1H-pyrazolo[3,4-d]pyrimidin-4-amine] | 44% | –
34 | CC(C)Oc1ccc2cc(-c3nn(CC4CCNCC4)c4ncnc(N)c34)ccc2c1 [Compound 32, 3-(6-isopropoxynaphthalen-2-yl)-1-(piperidin-4-ylmethyl)-1H-pyrazolo[3,4-d]pyrimidin-4-amine] | 96% | –
35 | CCCOc1ccc2cc(-c3nn(CC4CCNCC4)c4ncnc(N)c34)ccc2c1 [Compound 33, 1-(piperidin-4-ylmethyl)-3-(6-propoxynaphthalen-2-yl)-1H-pyrazolo[3,4-d]pyrimidin-4-amine] | 98% | –
36 | CCCCOc1ccc2cc(-c3nn(CC4CCNCC4)c4ncnc(N)c34)ccc2c1 [Compound 35, 3-(6-butoxynaphthalen-2-yl)-1-(piperidin-4-ylmethyl)-1H-pyrazolo[3,4-d]pyrimidin-4-amine] | 99% | –
37 | C=CCOc1ccc2cc(-c3nn(CC4CCNCC4)c4ncnc(N)c34)ccc2c1 [Compound 36, 3-(6-(allyloxy)naphthalen-2-yl)-1-(piperidin-4-ylmethyl)-1H-pyrazolo[3,4-d]pyrimidin-4-amine] | 99% | –
38 | Nc1ncnc2c1c(-c1ccc3cc(OCc4ccccc4Cl)ccc3c1)nn2CC1CCNCC1 [Compound 37, 3-(6-(2-chlorobenzyloxy)naphthalen-2-yl)-1-(piperidin-4-ylmethyl)-1H-pyrazolo[3,4-d]pyrimidin-4-amine] | 96% | –
39 | Nc1ncnc2c1c(-c1ccc3cc(OCc4cccc(Cl)c4)ccc3c1)nn2CC1CCNCC1 [Compound 38, 3-(6-(3-chlorobenzyloxy)naphthalen-2-yl)-1-(piperidin-4-ylmethyl)-1H-pyrazolo[3,4-d]pyrimidin-4-amine] | 96% | –
